From the supplement of paper PMC10307832

How the values were obtained:
Assay in all cases: relative viability (nuclei count vs DMSO), 5 days (fraction); higher = more cells survive
[1] = compound: COc1ccc(-c2ccc3c(N4CCOC[C@@H]4C)nc(N4CCOC[C@@H]4C)nc3n2)cc1CO [AZD8055] + Nc1nc2[nH]cc(CCc3ccc(C(=O)N[C@@H](CCC(=O)O)C(=O)O)cc3)c2c(=O)[nH]1 [Pemetrexed] (partner 0.2 µM)
How it was run: (§1)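 Each reported value is a median over duplicate plates. It expresses relative viability: treated-well nuclei count divided by vehicle-well nuclei count. Lung cancer cell lines in 1536-well plates were dosed by pin tool a day after seeding, alone with one drug or with a fixed anchor-drug dose plus five library-drug doses (not always all listed) in √10 steps, and nuclei were counted after 5 days.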

[2] = compound: COc1ccc(-c2ccc3c(N4CCOC[C@@H]4C)nc(N4CCOC[C@@H]4C)nc3n2)cc1CO [AZD8055] + O=C(c1cc(Cc2n[nH]c(=O)c3ccccc23)ccc1F)N1CCN(C(=O)C2CC2)CC1 [Olaparib] (partner 8 µM)
How it was run: as §1

[3] = compound: COc1ccc(-c2ccc3c(N4CCOC[C@@H]4C)nc(N4CCOC[C@@H]4C)nc3n2)cc1CO [AZD8055] + CC(C)C[C@H](NC(=O)[C@H](Cc1ccccc1)NC(=O)c1cnccn1)B(O)O [Bortezomib] (partner 0.002 µM)
How it was run: as §1

[4] = compound: COc1ccc(-c2ccc3c(N4CCOC[C@@H]4C)nc(N4CCOC[C@@H]4C)nc3n2)cc1CO [AZD8055] + Cc1nc(NC(=O)N2CCC[C@H]2C(N)=O)sc1-c1ccnc(C(C)(C)C(F)(F)F)c1 [Alpelisib] (partner 2 µM)
How it was run: as §1

| Cell Line | relative viability ([1]; first compound 0.01 µM) | relative viability ([1]; first compound 0.03162 µM) | relative viability ([1]; first compound 0.1 µM) | relative viability ([1]; first compound 0.3162 µM) | relative viability ([1]; first compound 1 µM) | relative viability ([2]; first compound 0.01 µM) | relative viability ([2]; first compound 0.03162 µM) | relative viability ([2]; first compound 0.1 µM) | relative viability ([2]; first compound 0.3162 µM) | relative viability ([2]; first compound 1 µM) | relative viability ([3]; first compound 0.01 µM) | relative viability ([3]; first compound 0.03162 µM) | relative viability ([3]; first compound 0.1 µM) | relative viability ([3]; first compound 0.3162 µM) | relative viability ([3]; first compound 1 µM) | relative viability ([4]; first compound 0.01 µM) | relative viability ([4]; first compound 0.03162 µM) | relative viability ([4]; first compound 0.1 µM) | relative viability ([4]; first compound 0.3162 µM) | relative viability ([4]; first compound 1 µM) |
| --- | --- | --- | --- | --- | --- | --- | --- | --- | --- | --- | --- | --- | --- | --- | --- | --- | --- | --- | --- | --- |
| 201T | 0.312 | 0.317 | 0.359 | 0.293 | 0.293 | 0.878 | 0.854 | 0.813 | 0.673 | 0.456 | 1.12 | 1.1 | 1.11 | 0.881 | 0.811 | 0.987 | 0.911 | 0.775 | 0.611 | 0.569 |
| A-427 | 1.04 | 0.895 | 0.835 | 0.555 | 0.587 | 0.718 | 0.695 | 0.611 | 0.529 | 0.431 | 1.01 | 0.815 | 0.858 | 0.518 | 0.462 | 1.22 | 0.999 | 0.939 | 0.674 | 0.519 |
| BEN | 0.815 | 0.589 | 0.514 | 0.421 | 0.449 | 1.15 | 0.884 | 0.658 | 0.455 | 0.518 | 0.663 | 0.472 | 0.428 | 0.365 | 0.262 | 1.06 | 0.593 | 0.391 | 0.341 | 0.338 |
| CAL-12T | 1.02 | 0.891 | 0.918 | 0.424 | 0.296 | 0.679 | 0.654 | 0.491 | 0.277 | 0.226 | 1.21 | 0.955 | 0.521 | 0.298 | 0.316 | 1.15 | 1.1 | 0.91 | 0.337 | 0.17 |
| COR-L23 | 0.204 | 0.194 | 0.186 | 0.177 | 0.178 | 0.408 | 0.42 | 0.277 | 0.143 | 0.141 | 1.2 | 0.834 | 0.779 | 0.236 | 0.168 | 0.837 | 0.551 | 0.395 | 0.155 | 0.154 |
| COR-L 105 | 1.3 | 1.16 | 1.29 | 0.664 | 0.485 | 0.738 | 0.741 | 0.707 | 0.455 | 0.448 | 0.997 | 0.879 | 0.565 | 0.309 | 0.373 | 0.975 | 0.737 | 0.798 | 0.271 | 0.315 |
| EKVX | 0.476 | 0.436 | 0.389 | 0.322 | 0.289 | 1 | 1.01 | 0.666 | 0.413 | 0.311 | 0.942 | 1 | 0.832 | 0.499 | 0.356 | 0.94 | 0.834 | 0.587 | 0.34 | 0.401 |
| EMC-BAC-2 | 0.501 | 0.465 | 0.474 | 0.396 | 0.316 | 0.391 | 0.465 | 0.395 | 0.272 | 0.244 | 1.06 | 1.04 | 0.954 | 0.465 | 0.382 | 0.706 | 0.663 | 0.469 | 0.281 | 0.297 |
| EPLC-272H | 0.361 | 0.363 | 0.369 | 0.321 | 0.331 | 0.627 | 0.589 | 0.333 | 0.281 | 0.245 | 0.74 | 0.62 | 0.754 | 0.522 | 0.691 | 0.927 | 0.754 | 0.546 | 0.445 | 0.404 |
| H3255 | 0.636 | 0.562 | 0.487 | 0.443 | 0.364 | 0.627 | 0.606 | 0.516 | 0.326 | 0.36 | 0.777 | 0.901 | 0.525 | 0.371 | 0.259 | 0.683 | 0.657 | 0.499 | 0.275 | 0.322 |
| HARA | – | 0.214 | 0.281 | 0.259 | 0.192 | – | 0.687 | 0.58 | 0.39 | 0.246 | 1.12 | 1.23 | 1.11 | 0.725 | 0.54 | 0.786 | 0.744 | 0.376 | 0.222 | 0.252 |
| HCC-15 | 0.241 | 0.236 | 0.209 | 0.238 | 0.241 | 0.776 | 0.697 | 0.643 | 0.47 | 0.35 | 1.17 | 1.1 | 0.976 | 0.663 | 0.615 | 0.86 | 0.769 | 0.639 | 0.366 | 0.282 |
| HCC-44 | 0.65 | 0.702 | 0.665 | 0.655 | 0.673 | 1.03 | 1.04 | 0.957 | 0.847 | 0.861 | 1.01 | 0.942 | 0.853 | 0.494 | 0.449 | 0.573 | 0.507 | 0.417 | 0.271 | 0.295 |
| HCC-78 | 0.967 | 0.865 | 0.855 | 0.88 | 0.896 | 0.758 | 0.632 | 0.54 | 0.388 | 0.383 | 0.561 | 0.466 | 0.423 | 0.274 | 0.288 | 0.303 | 0.204 | 0.181 | 0.217 | 0.221 |
| HCC-366 | 0.256 | 0.285 | 0.248 | 0.161 | 0.109 | 0.426 | 0.275 | 0.273 | 0.143 | 0.136 | 1.31 | 0.863 | 0.98 | 0.337 | 0.123 | 0.479 | 0.243 | 0.169 | 0.0661 | 0.07 |
| HCC-827 | 0.278 | 0.242 | 0.239 | 0.275 | 0.216 | 0.651 | 0.523 | 0.494 | 0.281 | 0.172 | 1.2 | 1.04 | 1.11 | 0.935 | 1.08 | 0.974 | 0.863 | 0.736 | 0.305 | 0.254 |
